Consider 3 compounds from patent US7390836B2, “Small molecules used to increase cell death” (priority 1999, dated 2008).

Structures are written as SMILES.

One data set concerns the target T1, Bcl-xL (Homo sapiens, UniProt Q07817, DEL45-84).
T1 construct: His6 (C); made in house
The experiment in a line: NMR titration of Bcl-xL. It counts as binding. As to conditions: for relative order of affinities, NMR titrations: rank order. On the procedure:
To verify this conclusion, NMR titrations of Bcl-xL with BH3I-1s were performed and their Ki values were determined (FIG. 4). […] The BH3I-1s Ki values obtained by the NMR approach agree with the results of both pulldown and SELDI analyses. Therefore, the order of affinities of BH3Is is: BH312′>BH3I-2>BH3I-2″>BH3I-1>BH3I-1′>BH3I-1″>BH3I-1′″.
NMR titration was used to examine whether BH3Iinteracts with the binding pocket of Bcl-xL in a manner similar to Bak BH3 peptide (Hajduk et al., Science 278:497-499, 1997).
Next, changes in Bcl-xL structure upon addition of increasing amounts of BH3Is were determined. Each of the BH3Is induced significant changes in the Bcl-xL structure. The compounds targeted the hydrophobic cleft formed by the BH1, BH2, and BH3 domains on the surface of the Bcl-xL protein, and primarily bound to the area formed by BH1 and BH2 domains.

The subject of data set [1] is HeLa cells that stably overexpress human BCL-XL. The experiment in a line: Cell death by ATP levels in Bcl-xL overexpressing cells after zVAD-fmk pretreatment. Type of data set: cell-based. As to conditions: zVAD-fmk 100 μM pretreatment, 48 or 72 hours. As to the method:
In another study, HeLa cells that stably overexpress human BCL-XL, and are therefore more resistant to cell death, were pretreated with zVAD-fmk (100 μM) for 1 hour, as described above. Each of the chemical compounds BH3I-1, BH3I-1′, and BH3I-2 from the ChemBridge library was then added to the media of the cells of three separate samples. After 48 or 72 hours of exposure of the cells to zVAD-fmk and the chemical compound, the level of cell death was measured for each sample, by measuring cellular ATP levels.

Another data set concerns FL5.12/Bcl-xL cells. Description: Cell death upon IL-3 deprivation in Bcl-xL overexpressing cells. It counts as cell-based. As to conditions: PI staining. The source says:
This effect could be overcome by a higher dose of BH3Is (FIG. 9E). Inactivation of Bcl-xL by BH3Is in FL5.12/Bcl-xL cells was detected as an increase in cell death following IL-3 deprivation.

Another data set deals with HeLa cells, Jurkat cells. Description: Cytochrome c release and mitochondrial membrane potential. Conditions: immunostaining and fractionation, 48 hr. It counts as cell-based. As to the method:
FIG. 6D is a set of images of cells showing cytochrome c release induced by BH3Is. HeLa cells were treated with 100 μM BH3I-1 for 48 hr and were then stained with Hoechst (a) or cytochrome c antibody (b). The arrows indicate the position of an apoptotic cell.
FIG. 6E is an image of a Western blot analysis of cytochrome c release from Jurkat cells treated with BH3I-1 (100 μM) or BH3I-2 (50 μM) for 48 hr. Cells were fractionated and soluble (S) and heavy membrane (M) fractions were subjected to Western blot analysis using cytochrome c (Pharmingen) and VDAC (Calbiochem) antibodies.
Next, the role of BH3 Is in inducing the release of cytochrome c from mitochondria was examined.

In data set [2] the test system is HeLa cells. The experiment in a line: Cell death by ATP levels after zVAD-fmk pretreatment. Type of data set: cell-based. As to conditions: zVAD-fmk 100 μM pretreatment, 48 or 72 hours. On the procedure:
The conditions under which cell death occurs in the presence of BH3Is were further evaluated. HeLa cells were pretreated with zVAD-fmk (100 μM) for 1 hour. The purpose of such a treatment was to inhibit the intracellular pathways mediating cell death by apoptosis. Each of the chemical compounds BH3I-1, BH3I-1′, or BH3I-2 was then added to the media of the cells of three separate samples. After 48 or 72 hours of exposure of the cells to zVAD-fmk and the chemical compound, the level of cell death was measured for each sample, by measuring cellular ATP levels.

The test system of data set [3] is HeLa cells. Description: Cell death by cellular ATP levels. It counts as cell-based. Conditions: 48 hours. On the procedure: (§1) HeLa cells, U-937 cells, or Jurkat cells, each of which endogenously express both Bak and Bcl-xL, were contacted with each of the BH3I chemical compounds identified above, by adding the compound to the cell culture media. Forty-eight hours after the cells received the chemical compound the cell culture sample was evaluated for the level of cell death that had occurred in response to the chemical compound. The level of cell death was determined by measuring cellular ATP levels, wherein a decrease in cellular ATP levels indicated an increase in cell death. In each cell line, cell death was increased in the sample that received one of the above-identified compounds.

In another data set the test system is U-937 cells. The experiment in a line: Cell death by cellular ATP levels. Type of data set: cell-based. As to conditions: 48 hours. On the procedure: as §1
For another data set, the system named is Jurkat cells. The experiment in a line: Cell death by cellular ATP levels. It counts as cell-based. Conditions: 48 hours. As to the method:
as §1

For orientation: GI50 means the concentration giving 50% growth inhibition. Read a low GI50 as greater sensitivity of the cells.

T1 sequence (Q07817 with tags, fused parts or gaps DEL45-84 limits assumed): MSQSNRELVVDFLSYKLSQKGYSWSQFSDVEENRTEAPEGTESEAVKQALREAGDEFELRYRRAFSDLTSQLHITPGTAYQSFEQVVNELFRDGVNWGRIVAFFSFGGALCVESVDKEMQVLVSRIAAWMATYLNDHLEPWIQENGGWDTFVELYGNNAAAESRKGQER

Take `CC(C)C(C(=O)O)N1C(=O)/C(=C/c2ccccc2)SC1=S` (stereo not drawn) [BH3I-1″]: the “relative order of affinities, NMR titrations” value on Bcl-xL was “BH3I-1>BH3I-1′>BH3I-1″>BH3I-1′″”.
As for `CC(C)C(C(=O)O)N1C(=O)C(=Cc2ccc(Br)cc2)SC1=S` (stereo in doubt) [BH3I-1], the “NOE magnetization transfer to Bcl-xL residues Y65 and F107” value at Bcl-xL was “direct contact between BH3I-1 and these residues”. Moreover, the “NMR derived Ki value, compared” value at Bcl-xL (compared with fluorescence polarization Ki of BH3I-2) is given as “lower than the fluorescence polarization assay derived Ki value of BH3I-2”. In addition, the “relative order of affinities, NMR titrations” value on Bcl-xL was “BH3I-1>BH3I-1′>BH3I-1″>BH3I-1′″”. Moreover, the “cellular ATP levels” value (in data set [1]; with HeLa cells [2]) was “cellular ATP levels decreased” each time. Besides, the “cytotoxicity upon IL-3 deprivation” value in the data set on FL5.12/Bcl-xL cells was “significantly increased upon IL-3 deprivation”. Besides, the cytochrome c release result with HeLa cells, Jurkat cells is on record as “induced cytochrome c release”.
`O=C(Nc1cc(S(=O)(=O)c2ccc(Cl)cc2)ccc1Cl)c1cc(Cl)cc(Br)c1O` [BH3I-2]: the “cellular ATP levels” value (in data set [1]; in the data set with HeLa cells [2]) was “cellular ATP levels decreased” each time. The “cytotoxicity upon IL-3 deprivation” value in the data set on FL5.12/Bcl-xL cells was “significantly increased upon IL-3 deprivation”. Also, the GI50 in the data set with HeLa cells [3], in the data set with U-937 cells and in the data set with Jurkat cells was 10 to 15 µM in each case. Besides, the cytochrome c release result with HeLa cells, Jurkat cells is given as “induced cytochrome c release”.
